Test results taken from PMC13070491, “Single-nucleus transcriptomics, pharmacokinetics, and pharmacodynamics of CDK4/6 and mTOR inhibition in a Phase 0/1 trial of recurrent high-grade glioma” (Neuro-Oncology, 2025).
pIC50: −log10 of the molar value.

Assays:
[1] = test system: Ki-67; experiment: IHC of tumor tissue, percentage of Ki-67 positive cells, archival vs Phase 0 surgical sample; assay type: in vivo, human
[2] = test system: pRb; experiment: IHC of tumor tissue, pRb positive cells, archival vs Phase 0 surgical sample; assay type: in vivo, human; conditions: IDH-wildtype patients n = 20; paired t-test P = .25; 5 days ribociclib + everolimus
[3] = test system: p4EBP1; experiment: IHC of tumor tissue, p4EBP1 positive cells; assay type: in vivo, human; conditions: 5 days ribociclib + everolimus; paired t-test P > .05
Protocol: Everolimus pharmacodynamic biomarkers were assessed using IHC with the following antibodies: anti-p4EBP1 (Cell Signaling Technology; #2855, 1:500); anti-pS6 ribosomal protein (Cell Signaling -Technology; #4858, 1:100). IHC staining was performed using the BOND RX automated system (Leica Biosystems) as previously described.[8] Stained slides were imaged on a Leica Versa microscope and analyzed with Aperio Image software. Percentage of stain-positive cells was quantified from at least 6 randomly selected regions of interest within the tumor as assessed by a board-certified neuropathologist.

[4] = test system: malignant cells of recurrent IDH-wildtype glioblastoma; experiment: Single nucleus RNA sequencing of tumor samples, malignant cell state proportions vs standard-of-care cohorts; assay type: in vivo, human
Source text: Count matrices were loaded into R using Seurat's (version 4.3.0) Read10X function. Cells were filtered based on the following quality control criteria: number of genes detected greater than 500 and fewer than 10 000; maximum percentage of mitochondrial genes of 5%. DoubletFinder was used to identify potential nuclei doublets, which were filtered out.[17] The expression data were processed by normalization, scaling, PCA based on genes differentially expressed across brain cell types, Harmony batch correction for sample preparation batch,[18] Uniform Manifold Approximation and Projection (UMAP), and clustering using the Louvain algorithm, and resolution set to 0.6. Cell type annotation was based on gene expression markers for each cluster and confirmed via mapping to a normal reference brain atlas (Azimuth). […] (https://github.com/broadinstitute/[…]) was used to confirm malignant status based on the presence of copy number alterations. […] HMM-predicted copy number alteration levels were extracted to define malignant and nonmalignant cells based on the following approach. […] Putative malignant cells not meeting this threshold were labelled as unresolved and excluded. Cells assigned to a nonmalignant gene expression cluster with 25% of chromosome 7 inferred gain and/or 25% of chromosome 10 inferred loss were labelled as unresolved and excluded. Samples with fewer than 25 malignant cells were excluded from malignant state analysis. […] Cell cycle status was assigned independent of […] cell state. Cells were classified as AC-like, etc., along with its cell cycle status-cycling or not.

[5] = test system: phosphorylated Rb protein in GB126, GB86 and GB239 glioma stem cell lines; experiment: Determination of ribociclib dose in vitro (phosphorylated Rb, Western blotting); assay type: cell-based, human; conditions: 5 days, tested 0.5, 1 and 5 μM
Protocol: Patient-derived glioma stem cell lines (GSCs; GB126, GB86, and GB239) were established from resected GBM tumor tissue. Cell lines were genetically profiled for mutations and copy number aberrations using the IvySeq custom gene panel. […] GB239 was derived from a tumor sample included in this Phase 0 trial (tumor sample: 100-0039). All human GSCs were cultured as described previously.[12]

[6] = test system: GB126; experiment: Ribociclib-treated in vitro single-cell RNA sequencing, malignant state proportions; assay type: cell-based, human; conditions: ribociclib vs DMSO 5 days
Source text: (§1) Patient-derived glioma stem cell lines (GSCs; GB126, GB86, and GB239) were established from resected GBM tumor tissue. Cell lines were genetically profiled for mutations and copy number aberrations using the […] custom gene panel. All cell lines harbored high-level CDK4 amplifications among other alterations. […] The single-cell RNA sequencing data were then processed via cellranger count and Seurat. Briefly, cells were filtered out based on the following criteria: minimum number of genes detected >500 and <10 000 with a maximum percentage of mitochondrial genes set to 10%. Statistical assessment was made between the malignant proportions of each cell state using a 2-sided paired t-test.

[7] = test system: GB239; experiment: as above; assay type: cell-based, human; conditions: ribociclib vs DMSO 5 days
Source text: as §1

[8] = test system: GB86; experiment: as above; assay type: cell-based, human; conditions: ribociclib vs DMSO 5 days
Source text: as §1

[9] = test system: CDK4/6; conditions: threshold basis for Phase 1 expansion; no reference given; read-out: biochemical IC50; cited from earlier work
[10] = test system: mTOR; conditions: threshold basis for Phase 1 expansion; no reference given; read-out: biochemical IC50; cited from earlier work

SMILES	change in proliferative Ki-67 marker, surgical samples vs matched archival tissue ([1]; IDH-wildtype patients n = 20, paired t-test P = .02, 5 days ribociclib + everolimus)	median decrease in Ki-67 ([1]; ribociclib 400 mg) [%]	median decrease in Ki-67 ([1]; ribociclib 600 mg) [%]	change in phosphorylated Rb, surgical samples vs matched archival tissue [2]	mTOR pathway activity as quantified by p4EBP1, surgical specimen vs archival tissue [3]	proportion of malignant cells actively cycling vs standard treatment cohorts (snRNAseq) ([4]; n = 17 ribociclib-exposed vs CARE n = 57 and Wang et al. n = 31, P = 3.2E-03 and P = 2.0E-04)	neural progenitor-like (NPC-like) state vs standard treatment cohorts (snRNAseq) ([4]; n = 17 ribociclib-exposed vs CARE n = 57 and Wang et al. n = 31, P = 5.8E-05, P = 1.8E-03)	fraction of NPC-like malignant cells, Phase 2 (104 days) vs Phase 0 (5-day) sample of one patient ([4]; ribociclib monotherapy, single case, snRNAseq)	dose per cell line that achieved a 50% inhibition of pRb [5]	MES-like malignant state proportion [6]	AC-like malignant state proportion ([6]; paired t-test P = 6.6E-3)	change in cycling cells ([6]; paired t-test P = 8.7E-4)	change in cycling cells ([7]; paired t-test P = 5.4E-4)	AC-like malignant state proportion ([7]; paired t-test P = .03)	change in cycling cells ([8]; paired t-test P = .04)	AC-like malignant state proportion ([8]; paired t-test P = .06)	pIC50 [9]	pIC50 [10]
CN(C)C(=O)c1cc2cnc(Nc3ccc(N4CCNCC4)cn3)nc2n1C1CCCC1 [Ribociclib, ribociclib]	significant decrease	2.93	8.94	nonsignificant decrease	elevated but not significantly different	lower proportion	decrease	reduced fraction	0.5-5 µM	increase	increase	decrease	decrease	increase	decrease	increase	7.40	–
CO[C@H]1C[C@@H]2CC[C@@H](C)[C@@](O)(O2)C(=O)C(=O)N2CCCC[C@H]2C(=O)O[C@H]([C@H](C)C[C@@H]2CC[C@@H](OCCO)[C@H](OC)C2)CC(=O)[C@H](C)/C=C(\C)[C@@H](O)[C@@H](OC)C(=O)[C@H](C)C[C@H](C)/C=C/C=C/C=C/1C [Everolimus, everolimus]	–	–	–	–	–	–	–	–	–	–	–	–	–	–	–	–	–	8.70
